In PubChem BioAssay (NCI):
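Test compounds were applied to cells in 96-well plates for 48 hours at 5 doses. GI50: concentration for 50% inhibition of growth. Definition used: TGI = concentration required for complete inhibition of growth.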

Columns and labels:
Assay in all cases: growth of human tumour cells (NCI), 48 h
HCC-2998 colon = system: HCC-2998 colon
HL-60(TB) leukemia = system: HL-60(TB) leukemia
SK-MEL-28 melanoma = system: SK-MEL-28 melanoma
MALME-3M melanoma = system: MALME-3M melanoma
MDA-MB-231 breast = system: MDA-MB-231 breast
IGROV1 ovarian = system: IGROV1 ovarian
SK-MEL-2 melanoma = system: SK-MEL-2 melanoma
SK-OV-3 ovarian = system: SK-OV-3 ovarian
UACC-257 melanoma = system: UACC-257 melanoma
MOLT-4 leukemia = system: MOLT-4 leukemia
T-47D breast = system: T-47D breast
A549 NSCLC = system: A549 NSCLC
ACHN renal = system: ACHN renal
SNB-75 CNS = system: SNB-75 CNS
SN12C renal = system: SN12C renal
A498 renal = system: A498 renal
NCI-H226 lung = system: NCI-H226 lung
SF-539 CNS = system: SF-539 CNS
SW-620 colon = system: SW-620 colon
HT29 colon = system: HT29 colon
TK-10 renal = system: TK-10 renal
K-562 leukemia = system: K-562 leukemia
DU-145 prostate = system: DU-145 prostate
786-0 renal = system: 786-0 renal
BT-549 breast = system: BT-549 breast
RPMI-8226 leukemia = system: RPMI-8226 leukemia
NCI-H522 lung = system: NCI-H522 lung
NCI-H460 lung = system: NCI-H460 lung
NCI/ADR-RES ovarian = system: NCI/ADR-RES ovarian
EKVX NSCLC = system: EKVX NSCLC
U251 CNS = system: U251 CNS
PC-3 prostate = system: PC-3 prostate
UO-31 renal = system: UO-31 renal
UACC-62 melanoma = system: UACC-62 melanoma
OVCAR-5 ovarian = system: OVCAR-5 ovarian
SK-MEL-5 melanoma = system: SK-MEL-5 melanoma
HOP-62 NSCLC = system: HOP-62 NSCLC
SR leukemia = system: SR leukemia
NCI-H23 lung = system: NCI-H23 lung
SF-268 CNS = system: SF-268 CNS
HCT-15 colon = system: HCT-15 colon
OVCAR-8 ovarian = system: OVCAR-8 ovarian
KM12 colon = system: KM12 colon
CCRF-CEM leukemia = system: CCRF-CEM leukemia

## Nc1cc(N)c2nc(-c3ccccc3)c(NCCc3ccc(Cl)c(Cl)c3)nc2c1
HCC-2998 colon
  GI50: 5.78 µM
  TGI: 19.7 µM
HL-60(TB) leukemia
  GI50: 2.07 µM
  TGI: 5.27 µM
SK-MEL-28 melanoma
  GI50: 2.13 µM
  TGI: 5.88 µM
MALME-3M melanoma
  GI50: 1.85 µM
  TGI: 4.5 µM
MDA-MB-231 breast
  GI50: 1.3 µM
  TGI: 3.89 µM
IGROV1 ovarian
  GI50: 3.38 µM
  TGI: 15.9 µM
SK-MEL-2 melanoma
  GI50: 10.3 µM
  TGI: 22.4 µM
SK-OV-3 ovarian
  GI50: 12.3 µM
  TGI: 24.7 µM
UACC-257 melanoma
  GI50: 2.06 µM
  TGI: 4.52 µM
MOLT-4 leukemia
  GI50: 1.14 µM
  TGI: 9.32 µM
T-47D breast
  GI50: 1.8 µM
  TGI: 5.94 µM
A549 NSCLC
  GI50: 12.6 µM
  TGI: 33.1 µM
ACHN renal
  GI50: 3.31 µM
  TGI: 12.4 µM
SNB-75 CNS
  GI50: 6.18 µM
  TGI: 33.4 µM
SN12C renal
  GI50: 1.75 µM
  TGI: 3.37 µM
A498 renal
  GI50: 11.3 µM
  TGI: 23.4 µM
NCI-H226 lung
  GI50: 16.5 µM
  TGI: 33.3 µM
SF-539 CNS
  GI50: 2.22 µM
  TGI: 10.9 µM
SW-620 colon
  GI50: 1.64 µM
  TGI: 2.99 µM
HT29 colon
  GI50: 3.4 µM
  TGI: 13.2 µM
TK-10 renal
  GI50: 4.78 µM
  TGI: 17.5 µM
K-562 leukemia
  GI50: 1.87 µM
  TGI: 5.29 µM
DU-145 prostate
  GI50: 1.63 µM
  TGI: 3.63 µM
786-0 renal
  GI50: 3.13 µM
  TGI: 21.1 µM
BT-549 breast
  GI50: 1.56 µM
  TGI: 13.8 µM
RPMI-8226 leukemia
  GI50: 0.924 µM
  TGI: 2.91 µM
NCI-H522 lung
  GI50: 2.11 µM
  TGI: 4.98 µM
NCI-H460 lung
  GI50: 3.21 µM
  TGI: 14.1 µM
NCI/ADR-RES ovarian
  GI50: 3.62 µM
  TGI: 18.8 µM
EKVX NSCLC
  GI50: 3.16 µM
  TGI: 16.2 µM
U251 CNS
  GI50: 2.03 µM
  TGI: 5.32 µM
PC-3 prostate
  GI50: 1.01 µM
  TGI: 4.29 µM
UO-31 renal
  GI50: 1.93 µM
  TGI: 3.97 µM
UACC-62 melanoma
  GI50: 2.5 µM
  TGI: 7.97 µM
OVCAR-5 ovarian
  GI50: 1.81 µM
  TGI: 4.75 µM
SK-MEL-5 melanoma
  GI50: 2.32 µM
  TGI: 7.52 µM
HOP-62 NSCLC
  GI50: 3.92 µM
  TGI: 39.8 µM
SR leukemia
  GI50: 1.66 µM
  TGI: 7.61 µM
NCI-H23 lung
  GI50: 2.81 µM
  TGI: 13.3 µM
SF-268 CNS
  GI50: 2.85 µM
  TGI: 12.9 µM
HCT-15 colon
  GI50: 4.64 µM
  TGI: 20 µM
OVCAR-8 ovarian
  GI50: 2.41 µM
  TGI: 6.02 µM
KM12 colon
  GI50: 2.63 µM
  TGI: 10.5 µM
CCRF-CEM leukemia
  GI50: 2.77 µM
  TGI: 12.3 µM
